This passage reports TGI results from PubChem BioAssay (NCI).

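Cultured in 96-well plates, cells were exposed to test compound for 48 hours across five concentrations. TGI: total growth inhibition.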

The test system of the first assay is XF 498 CNS. As to the kind of experiment: growth of human tumour cells (NCI), 48 h.
In turn, `COc1cc2c(oc(=O)c3c4oc([Si](C)(C)C)cc4cc(OC)c23)c2cccc(OCc3ccccc3)c12` gave a TGI of 27 µM.
On the same count and under the same terms, with `O=C(c1cccs1)N(C(=S)N1CCN(c2ccccn2)CC1)c1ccccc1` the figure was 84 µM; with `CC(=O)OCC1=C(CCC#N)N2C(=O)C(NC(=O)Cc3cccs3)C2S(=O)C1` (centres undefined), > 100 µM; with `CCCCNc1nc(C#N)c(N)s1`, > 100 µM.
Regarding `Cn1cc2ccccc2c1-c1nc(F)nc(F)n1`, the TGI worked out at 90.6 µM.
On the same count and under the same terms, with `COC(=O)N/N=C(\Cc1ccccc1)CN(C)C` the figure was > 100 µM; with `CC1=NN(C(=O)c2ccccc2O)C(=O)/C1=C/c1ccco1`, > 100 µM.
Same read-out and setting: to `COc1ccc2c3c1O[C@]1(C)C34CCN(C)C(C2)C42C=C[C@@]1(OC)c1c(O)ccc(O)c12` belongs > 100 µM; to `C[N+](C)(C)CC(=O)N/N=C/c1oc(-c2c(O)ccc3ccccc23)c(-c2c(O)ccc3ccccc23)c1[N+](=O)[O-]`, 55.5 µM; to `C/C(CC(=O)Nc1ccc([N+](=O)[O-])cc1)=N\NC(N)=O`, > 100 µM.
`CCCCOC(=O)C1C2CCC(O2)C1C(=O)OCCCC` (centres undefined): the TGI was > 100 µM.
As for `CC(=O)OC1COC(n2c(O)c(N=NC(N)=S)c3cc(Br)ccc32)C(OC(C)=O)C1OC(C)=O` (centres undefined), the TGI was > 100 µM.
Same read-out and setting: with `O=C(CSc1nnc(-c2ccc(N=Cc3ccc(Cl)cc3)cc2)o1)Nc1ccccc1[N+](=O)[O-]` the figure was > 100 µM.

The subject of another assay is M19-MEL melanoma. As to the kind of experiment: growth of human tumour cells (NCI), 48 h.
As to `O=c1[nH]c2cc([N+](=O)[O-])ccc2nc1/C(=N/Nc1ccccc1)C(O)c1ccccc1Cl` (centres undefined), the TGI is > 100 µM.
Still for that read-out and setting: with `C[C@]12CCC(=O)C=C1CC[C@@H]1[C@@H]2CC[C@]2(C)C(=O)NC(=O)C[C@@H]12` the figure was > 100 µM; with `COc1cc2c(oc(=O)c3c4oc([Si](C)(C)C)cc4cc(OC)c23)c2cccc(OCc3ccccc3)c12`, > 100 µM; with `O=C(c1cccs1)N(C(=S)N1CCN(c2ccccn2)CC1)c1ccccc1`, > 100 µM.
On the same count and under the same terms, with `CNS(=O)(=O)NN(C)S(=O)(=O)c1ccccc1` the figure was > 100 µM; with `CC(=O)OCC1=C(CCC#N)N2C(=O)C(NC(=O)Cc3cccs3)C2S(=O)C1` (centres undefined), > 100 µM.
Turning to `Cn1cc2ccccc2c1-c1nc(F)nc(F)n1`, the TGI is > 100 µM.
On the same count and under the same terms, to `COC(=O)N/N=C(\Cc1ccccc1)CN(C)C` belongs > 100 µM.
Still for that read-out and setting: to `CC1=NN(C(=O)c2ccccc2O)C(=O)/C1=C/c1ccco1` belongs 20 µM.
For `C[N+](C)(C)CC(=O)N/N=C/c1oc(-c2c(O)ccc3ccccc23)c(-c2c(O)ccc3ccccc23)c1[N+](=O)[O-]`, the TGI worked out at 60.8 µM.
Same read-out and setting: to `COc1ccc(Nc2nnc(-c3nsc4ccccc34)s2)cc1` belongs > 100 µM; to `C/C(CC(=O)Nc1ccc([N+](=O)[O-])cc1)=N\NC(N)=O`, > 100 µM.
In the case of `CCCCOC(=O)C1C2CCC(O2)C1C(=O)OCCCC` (centres undefined), the TGI was > 100 µM.
`CC(=O)OC1COC(n2c(O)c(N=NC(N)=S)c3cc(Br)ccc32)C(OC(C)=O)C1OC(C)=O` (centres undefined): the TGI was > 100 µM.
Regarding `O=C(CSc1nnc(-c2ccc(N=Cc3ccc(Cl)cc3)cc2)o1)Nc1ccccc1[N+](=O)[O-]`, the TGI was > 100 µM.

The test system of a further assay is DMS 114 small cell lung. As to the kind of experiment: growth of human tumour cells (NCI), 48 h.
On to `O=c1[nH]c2cc([N+](=O)[O-])ccc2nc1/C(=N/Nc1ccccc1)C(O)c1ccccc1Cl` (centres undefined), for which the TGI is > 100 µM.
As for `C=Cc1ccc(C)[n+](C[Si](C)(C)O[Si](C)(C)C)c1`, the TGI is > 100 µM.
Same read-out and setting: with `C[C@]12CCC(=O)C=C1CC[C@@H]1[C@@H]2CC[C@]2(C)C(=O)NC(=O)C[C@@H]12` the figure was > 100 µM; with `COc1cc2c(oc(=O)c3c4oc([Si](C)(C)C)cc4cc(OC)c23)c2cccc(OCc3ccccc3)c12`, > 100 µM; with `O=C(c1cccs1)N(C(=S)N1CCN(c2ccccn2)CC1)c1ccccc1`, > 100 µM.
On the same count and under the same terms, to `CNS(=O)(=O)NN(C)S(=O)(=O)c1ccccc1` belongs > 100 µM.
Regarding `CC(=O)OCC1=C(CCC#N)N2C(=O)C(NC(=O)Cc3cccs3)C2S(=O)C1` (centres undefined), the TGI was > 100 µM.
On the same count and under the same terms, to `Cn1cc2ccccc2c1-c1nc(F)nc(F)n1` belongs > 100 µM.
The same measure, in the same setting: to `COC(=O)N/N=C(\Cc1ccccc1)CN(C)C` belongs > 100 µM; to `CC1=NN(C(=O)c2ccccc2O)C(=O)/C1=C/c1ccco1`, 6.94 µM.
Still for that read-out and setting: with `COc1ccc2c3c1O[C@]1(C)C34CCN(C)C(C2)C42C=C[C@@]1(OC)c1c(O)ccc(O)c12` the figure was > 100 µM; with `COc1ccc(Nc2nnc(-c3nsc4ccccc34)s2)cc1`, > 100 µM.
As to `C/C(CC(=O)Nc1ccc([N+](=O)[O-])cc1)=N\NC(N)=O`, the TGI was > 62.6 µM.
On the same count and under the same terms, with `CCCCOC(=O)C1C2CCC(O2)C1C(=O)OCCCC` (centres undefined) the figure was > 55.7 µM.
In the case of `CC(=O)OC1COC(n2c(O)c(N=NC(N)=S)c3cc(Br)ccc32)C(OC(C)=O)C1OC(C)=O` (centres undefined), the TGI was > 100 µM.
The same measure, in the same setting: with `O=C(CSc1nnc(-c2ccc(N=Cc3ccc(Cl)cc3)cc2)o1)Nc1ccccc1[N+](=O)[O-]` the figure was > 100 µM.

The next assay relates to MDA-MB-231 breast. The experiment in a line: growth of human tumour cells (NCI), 48 h.
On to `CC1=NN(C(=O)c2ccccc2O)C(=O)/C1=C/c1ccco1`, for which the TGI was > 100 µM.
On to `COc1ccc(Nc2nnc(-c3nsc4ccccc34)s2)cc1`, for which the TGI is > 100 µM.
On the same count and under the same terms, to `C=CCNC1=C2C[C@@H](C)C[C@@H](OC)[C@H](OC(=O)CCN)[C@H](C)/C=C(\C)[C@@H](OC(N)=O)[C@H](OC)/C=C\C=C(/C)C(=O)NC(=CC1=O)C2=O` belongs 17.7 µM; to `COC(=O)C1(CCC(C)=O)CCCCCC1=O` (centres undefined), > 100 µM.
For the molecule `COC(=O)c1ccc(C)cc1CC1Cc2cc(C)ccc2C1=O` (centres undefined), the TGI was > 100 µM.
The same measure, in the same setting: to `C(=C\c1cccs1)/c1cccc(/C=C/c2cccs2)n1` belongs > 100 µM; to `CC(CCN)(CCN)[N+](=O)[O-]`, > 100 µM.
The same measure, in the same setting: to `NN(CC(=O)O)CC(=O)O` belongs > 100 µM; to `CCOC(=O)c1cccn1S(=O)(=O)c1cc(Cl)ccc1NC(=O)CC`, > 100 µM.
On to `C=CCN1C(=O)C=C(c2ccccc2)n2ncc3cccc1c32`, for which the TGI was > 100 µM.
Same read-out and setting: to `O=C([O-])C[n+]1ccccc1` belongs > 100 µM; to `COc1ccc(-c2c(C#N)c(N)n(C3OCC(OC(C)=O)C(OC(C)=O)C3OC(C)=O)c(=S)c2C#N)cc1` (centres undefined), > 100 µM; to `CSc1nc(C#N)c(/N=C\N(C)C)n1C`, > 100 µM.
Turning to `CN(C)CCCSc1nc2ccccc2[nH]1`, the TGI was > 100 µM.

The next assay deals with DMS 273 small cell lung. The experiment in a line: growth of human tumour cells (NCI), 48 h.
Take `O=c1[nH]c2cc([N+](=O)[O-])ccc2nc1/C(=N/Nc1ccccc1)C(O)c1ccccc1Cl` (centres undefined): the TGI is > 100 µM.
Consider `C=Cc1ccc(C)[n+](C[Si](C)(C)O[Si](C)(C)C)c1`, for which the TGI was > 100 µM.
On the same count and under the same terms, to `C[C@]12CCC(=O)C=C1CC[C@@H]1[C@@H]2CC[C@]2(C)C(=O)NC(=O)C[C@@H]12` belongs > 100 µM; to `COc1cc2c(oc(=O)c3c4oc([Si](C)(C)C)cc4cc(OC)c23)c2cccc(OCc3ccccc3)c12`, 72.8 µM.
Regarding `O=C(c1cccs1)N(C(=S)N1CCN(c2ccccn2)CC1)c1ccccc1`, the TGI is > 100 µM.
Still for that read-out and setting: with `CNS(=O)(=O)NN(C)S(=O)(=O)c1ccccc1` the figure was > 100 µM.
